Measured values from paper PMC6272176, “Antileishmanial and Cytotoxic Compounds from Valeriana wallichii and Identification of a Novel Nepetolactone Derivative” (Molecules, 2015).
Like-named read-outs stand apart in the source and are kept apart here.

How the values were obtained:
L. major promastigotes = assay: Antileishmanial activity against L. major promastigotes, AlamarBlue assay; format: cell-based, Leishmania major; conditions: for antileishmanial activity (in words): verbal rating; for IC50: Leishmania major, read-out: IC50 (L. major)
Method: (§1) All compounds isolated were subjected to the evaluation of their antileishmanial activity against L. major promastigotes in vitro and cytotoxicity against macrophages (J774.1 murine cell line) using the corresponding AlamarBlue^© assays (cf. Table 2).
(§2) Antileishmanial activity against L. major promastigotes and cytotoxicity against a murine macrophage cell line (J774.1) was determined using an AlamarBlue^© assay. Methods for both procedures have been reported previously. IC50 values are presented as mean values of two experiments.

[1] = tested on: J774.1 murine macrophage cell line; assay: Cytotoxicity against macrophages (J774.1), AlamarBlue assay; format: cell-based; conditions: for IC50: Mus musculus; for cytotoxicity (in words): verbal rating
Method: as §1, §2

[2] = L. major promastigotes in vitro
[3] = L. major promastigotes in vitro, values marked *: pure or synthesized compounds, given in µM, mean of two experiments
[4] = J774.1 macrophages, values marked *: pure or synthesized compounds, given in µM, mean of two experiments, read-out: IC50 (J774.1)
[5] = L. major promastigotes in vitro, fractions containing isolated compounds, mean of two experiments
[6] = J774.1 macrophages, fractions containing isolated compounds, mean of two experiments, read-out: IC50 (J774.1)
[7] = J774.1 macrophages, fractions containing isolated compounds, mean of two experiments

Row | IC50 (L. major promastigotes; [5]) | Molecule | antileishmanial activity (in words) (L. major promastigotes; [2]) | IC50 [1, 6] | further results
1 |  | CC1(C)C2CCC1(C)C(OC(=O)C=Cc1ccc(O)c(O)c1)C2 (stereo not drawn) [Bornyl caffeate (1), bornyl caffeate] | moderate antileishmanial activity |  | IC50 (L. major promastigotes; [3]): 48.8 µM; IC50 [1, 4]: 8.3 µM
2 |  | CC(C)CC(=O)OC1CC2CCC1(C)C2(C)C (stereo not drawn) [Bornyl isovalerate (13), bornyl isovalerate] | no antileishmanial activity |  | IC50 (L. major promastigotes; [3]): > 100 µM; IC50 [1, 4]: > 100 µM
3 |  | CCCCCCCCCCCCCCCCOP(=O)([O-])OCC[N+](C)(C)C [Miltefosine, reference compound] |  |  | IC50 [1, 4]: 56.5 µM
4 | 60.8 µg/mL | CC(C)C1CCC2(C)CCCC(=O)C2(C)C1 (stereo not drawn) [Valeranone (12), valeranone] | moderate | 42.6 µg/mL | cytotoxicity (in words) ([1]; J774.1 macrophages): moderate
5 | 16.7 µg/mL | COc1ccc(C=CC(=O)OC2CC3CCC2(C)C3(C)C)cc1O (stereo not drawn) [compound 2, bornyl isoferulate] | moderate antileishmanial activity | 34.7 µg/mL | 
6 | > 100 µg/mL | CC1CCC2(OC3OC(CO)C(O)C(O)C3O)C1C(=O)OC2(C)COC(=O)C=Cc1ccc(O)cc1 [compound 4, {[(3S,4S,7R,8S)-1-Oxo-3,7-dimethyl-4-(O-β-D-glucopyranosyl)oxy]hexahydrocyclopenta[c]furan-3-yl}-methyl-trans-4-hydroxycinnamate] |  | > 100 µg/mL | 
7 | > 100 µg/mL | C[C@@H]1CC[C@H]2[C@H](CO)COC(=O)[C@H]21 [compound 5, (4R,5S,8R,9S)-4-(Hydroxymethyl)-8-methylhexahydro-cyclopenta[c]pyranone] |  | 17.5 µg/mL | 
8 | 1.9 µg/mL | CCC(C)CC(=O)OC1OC=C(COC(=O)CC(C)C)C2CC(OC(C)=O)C(O)(COC(=O)C(OC(=O)CC(C)C)C(C)C)C12 (stereo not drawn) [compound 6] |  | < 0.8 µg/mL | 
9 | 0.8 µg/mL | CC(=O)OC1CC2C(COC(=O)CC(C)C)=COC(OC(=O)CC(C)C)C2C1(O)COC(=O)CC(C)C (stereo not drawn) [compound 7] |  | < 0.8 µg/mL | 
10 |  | CC(=O)OCC1=COC(OC(=O)CC(C)C)C2C1=CC(OC(=O)CC(C)C)C2(O)COC(=O)CC(C)C (stereo not drawn) [compound 8] |  |  | IC50 (L. major promastigotes; [3]): 1.7 µM; IC50 [1, 4]: 1 µM
11 |  | COc1cc(C2c3cc4c(cc3C(O)C3COC(=O)C23)OCO4)cc(OC)c1O (stereo not drawn) [compound 15, 4'-demethylpodophyllotoxin] | no antileishmanial activity |  | IC50 (L. major) (L. major promastigotes; [5]): >100 µg/mL; IC50 (J774.1) [1, 7]: <0.8 µg/mL
12 |  | COc1cc([C@@H]2c3cc4c(cc3[C@H](O)[C@H]3COC(=O)[C@H]23)OCO4)cc(OC)c1OC [compound 16, podophyllotoxin] | no antileishmanial activity |  | IC50 (L. major promastigotes): > 100 µg/mL; IC50 ([1]; J774.1, read-out: IC50 (J774.1)): < 0.8 µg/mL
13 | 5.8 µg/mL | CC1CC(O)C2C1CC1CCC2(C)OC1(C)C (stereo not drawn) [α-Kessyl alcohol (11), α-kessyl alcohol] | rather good antileishmanial activity | 1.7 µg/mL | 
14 | 52.2 µg/mL | CC(C)=CCCC(C)C1(O)CC=C(C)CC1 (stereo not drawn) [β-Bisabolol (10), β-bisabolol] | moderate | 37.1 µg/mL | cytotoxicity (in words) ([1]; J774.1 macrophages): moderate
15 |  | pinoresinol [Pinoresinol (17)] | no antileishmanial activity |  | IC50 (L. major) (L. major promastigotes; [5]): >100 µg/mL; IC50 (J774.1) [1, 7]: <0.8 µg/mL

Row | Molecule | IC50 (L. major promastigotes; [5]) | antileishmanial activity (in words) (L. major promastigotes; [2]) | IC50 [1, 6] | further results
16 | CC(=O)OC1CC2C(COC(=O)CC(C)C)=COC(OC(=O)CC(C)C)C2C1(O)CCl (stereo not drawn) [compound 9, valechlorine] | 2.3 µg/mL |  | 1.9 µg/mL | 
